In patent US9481667B2, “Salts and solid forms of isoquinolinones and composition comprising and methods of using the same” (Infinity Pharmaceuticals, Inc., priority 2013, dated 2016):
Converted amounts (≈) assume the structure as drawn. Structures can show the parent of a compound that is named as a salt.

How the values were obtained:
Type in all cases: physicochemical
[1] = Gravimetric vapour sorption (GVS); conditions: for GVS: moisture content reached on uptake at 40-50% RH: remains stable on sorption up to 90% RH and on desorption down to 10% RH; for XRPD post GVS (C2): 0.5 g scale-up salts; for GVS Single cycle: hygroscopicity, 0-90% RH
Description: Sorption isotherms were obtained using a Hiden IGASorp moisture sorption analyser, controlled by CFRSorp software. The sample temperature was maintained at 25° C. by a Huber re-circulating water bath. The humidity was controlled by mixing streams of dry and wet nitrogen, with a total flow rate of 250 ml/min. The relative humidity (RH) was measured by a calibrated Vaisala RH probe (dynamic range of 0-95% RH), located near the sample. The weight change, (mass relaxation) of the sample as a function of % RH was constantly monitored by the microbalance (accuracy ±0.001 mg). Typically 10-20 mg of sample was placed in a tared mesh stainless steel basket under ambient conditions. The sample was loaded and unloaded at 40% RH and 25° C. (typical room conditions). A moisture sorption isotherm was performed as outlined below (2 scans giving 1 complete cycle). The standard isotherm was performed at 25° C. at 10% RH intervals over a 0-90% RH range.
The software uses a least squares minimisation procedure together with a model of the mass relaxation, to predict an asymptotic value. The measured mass relaxation value must be within 5% of that predicted by the software, before the next % RH value is selected. The minimum equilibration time was set to 1 hour and the maximum to 4 hours. The sample was recovered after completion of the isotherm and re-analysed by XRPD.

Dissolution = conditions: in 15 min at pH 1.2
Description: The dissolution rate for the hydrate was about 80% in 15 min at pH 1.2 and about 20% in 60 min at pH 2.5. The dissolution rate of the bis-sulfuric acid salt was 100% in 15 min at both pH 1.2 and pH 2.5.

[2] = Storage at 25° C./93% RH (solid-state stability); conditions: for Stability on storage at 25° C./93% RH: 1 week, solid form by XRPD; for Storage 25° C./93% RH for 1 week: HPLC Purity / Storage 25° C./93% RH for 1 week: XRPD (D8): 0.5 g scale-up salts
[3] = 2-Week comparative stability studies; conditions: 2 weeks; 5° C. (closed); ambient (closed); ambient (closed-exposed to light); ambient (open); 60° C. (closed); RT/75% RH (open); 40° C./75% RH (open)
Description: (closed); (ii) ambient (closed); (iii) ambient (closed-exposed to light); (iv) ambient (open); (v) 60° C. (closed); (vi) RT/75% RH (open); and (vii) 40° C./75% RH (open).

[4] = Thermodynamic aqueous solubility
[5] = Stability of Hydrate Form 2 of free base: maturation in water or acetic acid:water; conditions: 40 hours
[6] = Solubility assessment using free base Hydrate Form 2
Description: The best solvent systems (clear solutions) were methanol:anisole 1:1 and DMSO (10 volumes, at RT), dioxane (10 volumes, 50° C.), chloroform (20 volumes, RT). […]

[7] = Stability of Hydrate Form 2 of free base: maturation in water or acetic acid:water; conditions: 40 hours; remark: listed apart in the source
Description: Both solids obtained from maturation at 25° C.

[8] = Storage at 40° C./75% RH (solid-state stability); conditions: for Stability on storage at 40° C./75% RH: 1 week, solid form by XRPD; for Storage 40° C./75% RH for 1 week: HPLC Purity / Storage 40° C./75% RH for 1 week: XRPD (D8): 0.5 g scale-up salts
Description: The crystalline solids were filtered, dried at ambient conditions, and stored at 40° C./75% RH for 1 week and analyzed by ^1H NMR/IC.
Samples from the screen using amorphous free base Compound 1 were analysed by ^1H-NMR and DSC, and re-analysis by XRPD was also carried out after drying at 50° C./vacuum and storage at 40° C./75% RH (the same sample was dried and stored at elevated humidity).

[9] = Density and flowability (Hausner ratio, Carr index)
Source text: The Hausner ratio and the Carr index are correlated to the flowability of a powder or granular material. […] The flowability of both salts are acceptable for manufacturing.

[10] = Polymorph screen: maturation (temperature cycling RT/50° C.) in solvents
Description: One of 21 solvents was added to each vial in a number of aliquots (up to 30 volumes), with shaking. All the samples were then placed under maturation between RT to 50° C. (4 hours at each temperature) for 3 days. After maturation the samples were analysed by XRPD. Clear solutions were cooled to −20° C. (freezer). If no precipitation occurred samples were evaporated at RT.
Samples were placed under maturation between RT-50° C. (4 hours cycle) for 3 days. After maturation the samples were analyzed by XRPD. Clear solutions were then cooled to −20° C. (freezer). If no precipitation occurred, samples were evaporated at RT.
Bis-Sulfuric acid salt Form 1 of Compound 1 (ca. 35 mg) was weighed into vials. The corresponding solvents and solvent mixtures were added in portions of (a total of) 5, 10, 20, and 30 volumes at 50° C., with shaking, aiming for clear solutions. After each addition, the vials were allowed to shake for 20 minutes, after which observations were made. Solutions were allowed to evaporate, whereas slurries were set for 8 hour temperature cycling maturation, between RT and 50° C., for 5 days.
The oils obtained by solvent evaporation were used for the maturation screen. Anhydrous solvents (5 volumes; 100 μL) were used in order to minimise the amount of water present. Any solutions were allowed to slowly evaporate, whereas slurries were set for 8 hour temperature cycling maturation, between RT and 50° C. After 24 hours, most oils had not mixed with the solvents, and these were scratched with a spatula, producing slurries. These were matured for a further 24 hours before performing XRPD analysis.
Amorphous free base Compound 1 (ca. 25 mg) was weighed into vials. The selected solvents and solvent mixtures (5 to 20 volumes) were added with stirring. Any solutions were allowed to slowly evaporate, whereas slurries were set for 8 hour temperature cycling maturation, between RT and 50° C., for 2 days.
Crystals were ground in order to analyse them by XRPD. Suspensions were set for temperature cycling for a total of five days after which time XRPD analysis was carried out. […] Similar to the screen in Example 20, these XRPD patterns show slight differences (FIG. 37). However, solids from both screens obtained from the same solvent show a matching XRPD pattern, also supporting that this is a series of isostructural solvates. […]

[11] = listed as Compound 1 Free Base Form 2

Compound: COc1cc(-c2cccc3cc([C@H](C)Nc4nc(N)ncc4C#N)n(-c4ccccc4)c(=O)c23)ccn1 [Form 2 of the free base of Compound 1, (S)-2-amino-4-((1-(8-(2-methoxypyridin-4-yl)-1-oxo-2-phenyl-1,2-dihydroisoquinolin-3-yl)ethyl)amino)pyrimidine-5-carbonitrile]
- GVS: moisture uptake on loading between 40-50% RH [1]: 1 % w/w
- GVS: moisture on loading ([1]; loaded at 40% RH, 25° C., listed as Compound 1 Free Base Form 2): 4.7% w/w moisture on loading. Immediate
- GVS: moisture content reached on uptake at 40-50% RH [1, 11]: moisture uptake (40-50% RH up to 5.7% w/w)
- GVS: moisture content reached on uptake at 40-50% RH ([1]; listed as Free base Form 2): 5.7 % w/w
- dissolution rate (Dissolution; listed as Form 2 of free base hydrate): about 80%
- Stability on storage at 25° C./93% RH [2]: stable
- Stability on storage at 25° C./93% RH [2, 11]: Very slight changes after 1 week
- Stability on storage at 25° C./93% RH ([2]; listed as Free base Form 2): mainly the same pattern with a few differences
- Change of water content (KF) [3]: No significant change of water content
- solubility thermodynamic ([4]; aqueous, water, thermodynamic from solid, at pH 6.47): 5 µg/mL (≈ 10.2 µM)
- Solid form (XRPD) after maturation ([5]; acetic acid:water 1:3, 90° C.): some evidence of the acetic acid solvate Form 6 mixed with a majority of Form 2
- Solid form (XRPD) after maturation ([5]; pure water, 90° C., listed as Hydrate Form 2 of free base of Compound 1): Form 2
- solvent volumes giving a clear solution ([6]; 2-methyltetrahydrofuran): 50 volumes
- solvent volumes giving a clear solution ([6]; DCM): 100 volumes
- solvent volumes giving a clear solution ([6]; DCM:methanol 1:1): 100 volumes
- solvent volumes giving a clear solution ([6]; DME): 100 volumes
- solvent volumes giving a clear solution ([6]; DMSO, at RT): 10 volumes
- solvent volumes giving a clear solution ([6]; THF): 100 volumes
- solvent volumes giving a clear solution ([6]; THF:5% water): 50 volumes
- solvent volumes giving a clear solution ([6]; acetonitrile/5% water): 100 volumes
- solvent volumes giving a clear solution ([6]; chloroform, RT): 20 volumes
- solvent volumes giving a clear solution ([6]; dioxane, 50° C.): 10 volumes
- solvent volumes giving a clear solution ([6]; ethanol:anisole): 50 volumes
- solvent volumes giving a clear solution ([6]; methanol): 100 volumes
- solvent volumes giving a clear solution ([6]; methanol:anisole 1:1, at RT): 10 volumes
- Solid form (XRPD) after maturation ([7]; acetic acid:water 1:3, 25° C.): stable
- Solid form (XRPD) after maturation ([7]; acetic acid:water 1:3, 25° C., listed as Hydrate Form 2 of free base of Compound 1): unchanged Form 2
- Solid form (XRPD) after maturation ([7]; pure water, 25° C.): stable
- Solid form (XRPD) after maturation ([7]; pure water, 25° C., listed as Hydrate Form 2 of free base of Compound 1): unchanged Form 2
- Stability on storage at 40° C./75% RH [8]: stable
- Stability on storage at 40° C./75% RH [8, 11]: Very slight changes after 1 week
- Stability on storage at 40° C./75% RH ([8]; listed as Free base Form 2): mainly the same pattern with a few differences

Compound: COc1cc(-c2cccc3cc([C@H](C)Nc4nc(N)ncc4C#N)n(-c4ccccc4)c(=O)c23)ccn1 [Form 1 of the sulfuric acid salt of Compound 1] [(S)-2-amino-4-((1-(8-(2-methoxypyridin-4-yl)-1-oxo-2-phenyl-1,2-dihydroisoquinolin-3-yl)ethyl)amino)pyrimidine-5-carbonitrile]
- XRPD post GVS (C2) [1]: Unchanged
- GVS Single cycle ([1]; 25° C.): Slightly hygroscopic
- dissolution rate (Dissolution; listed as Form 1 of bis-sulfuric acid salt monohydrate): 100%
- Storage 25° C./93% RH for 1 week: HPLC Purity [2]: HPLC Purity: Unchanged
- Storage 25° C./93% RH for 1 week: XRPD (D8) [2]: XRPD (D8): Unchanged
- Flowability compared to the hydrate [9]: improved flowability
- Change of water content (KF) [3]: No significant change of water content
- Solid form after maturation of slurries ([10]; slurries in 30 volumes of solvent, RT/50° C. cycling, five days (all experiments other than acetic acid/water, methanol, ethanol/water)): did not show any changes
- Storage 40° C./75% RH for 1 week: HPLC Purity [8]: HPLC Purity: Unchanged
- Storage 40° C./75% RH for 1 week: XRPD (D8) [8]: XRPD (D8): Unchanged
- Stability on storage at 40° C./75% RH [8]: stable
- Stability on storage at 40° C./75% RH ([8]; listed as bis-sulfuric acid salts): stable

Compound: COc1cc(-c2cccc3cc([C@H](C)Nc4nc(N)ncc4C#N)n(-c4ccccc4)c(=O)c23)ccn1 [Form 1 of the maleic acid salt of Compound 1] [(S)-2-amino-4-((1-(8-(2-methoxypyridin-4-yl)-1-oxo-2-phenyl-1,2-dihydroisoquinolin-3-yl)ethyl)amino)pyrimidine-5-carbonitrile]
- XRPD post GVS (C2) [1]: Unchanged
- GVS Single cycle ([1]; 25° C.): Slightly hygroscopic
- dissolution rate (Dissolution; listed as Form 1 of mono-maleic acid salt): 100%
- Storage 25° C./93% RH for 1 week: HPLC Purity [2]: HPLC Purity: 99.8% Peak Area
- Storage 25° C./93% RH for 1 week: XRPD (D8) [2]: XRPD (D8): Unchanged
- Flowability compared to the hydrate [9]: improved flowability
- Change of water content (KF) [3]: No significant change of water content
- XRPD (C2) post Aqueous solubility ([4]; solid after thermodynamic aqueous solubility): FB pattern 2
- Salt stability on maturation in solvents ([10]; RT to 50° C., 3 days, Ethanol, 2-Propanol, 1-Propanol, Acetone, THF, 2-Propanol/Water (90/10 v/v), EtOH/Water (90/10 v/v), Acetic acid/Water (25/75 v/v): free base recrystallized): tendency to dissociate
- Storage 40° C./75% RH for 1 week: HPLC Purity [8]: HPLC Purity: 99.8% Peak Area
- Storage 40° C./75% RH for 1 week: XRPD (D8) [8]: XRPD (D8): Unchanged
- Stability on storage at 40° C./75% RH [8]: stable
- Stability on storage at 40° C./75% RH ([8]; listed as mono-maleic acid salt): stable
